Data reported in patent US4999199A, “Pharmaceutical formulations: liposomes incorporating aromatic polyene antibiotics” (priority 1988, dated 1991).

How the values were obtained:
[1] = conventional formulations, parenteral; cited from earlier work
[2] = tested on: humans; details: given orally to humans; cited from earlier work
[3] = cited from earlier work
[4] = tested on: human red blood cells (RBC); experiment: In vitro toxicity toward red blood cells (hemoglobin release, hemolysis); details: at 75 Mg/ml (so in the source); 20% human RBC, 45 minutes at 37° C.; hypotonic water = 100% lysis
Protocol: The samples were incubated for 45 minutes at 37° C., centrifuged at 10,000 xg for 20 minutes, and the hemoglobin content of the supernatant determined by its light absorbance. The release of hemoglobin by a hypotonic water solution was also measured and was considered to represent 100% lysis.

[5] = tested on: various fungi; experiment: In vitro susceptibility experiments, candicidin compared with amphotericin B; format: cell-based; details: experiments in various laboratories including those of the present inventors

Molecule	persons given amphotericin B who develop decreased renal function and abnormal urine sediment [1]	toxicity on oral administration [2]	water solubility [3]	RBC hemolysis [4] [%]	antifungal activity compared with amphotericin B [5]
C[C@@H]1[C@H](O)[C@@H](C)/C=C/C=C/C=C/C=C/C=C/C=C/C=C/[C@H](O[C@@H]2O[C@H](C)[C@@H](O)[C@H](N)[C@@H]2O)C[C@@H]2O[C@](O)(C[C@@H](O)C[C@@H](O)[C@H](O)CC[C@@H](O)C[C@@H](O)CC(=O)O[C@H]1C)C[C@H](O)[C@H]2C(=O)O [amphotericin B]	over 80%				
candicidin		without any toxicity	totally water insoluble	75	much higher antifungal activity than amphotericin B
